According to US20230158071A1, “TUMOR COMBINED IMMUNOTHERAPY” (CRAGE medical Co., Limited, priority 2018, published 2023):

What was measured:
[1] = test system: E0771-EGFRvIII orthotopic breast cancer xenografts; assay: Mouse E0771-EGFRvIII orthotopic breast cancer xenografts, olaparib and CAR-T; format: in vivo, C57BL/6 mice; details: olaparib 50 mg/kg i.p. with CAR-T cells
Procedure: (§1) (1) Establishment of mouse orthotopic breast cancer model and respective treatment in groups:
E0771-EGFRvIII cells in the logarithmic growth phase and growing well are collected, inoculating 5×10^5 target cells at right side position of the third pair of accessory breasts of C57BL/6 mice (mice with normal immune system), and the inoculating day is recorded as the first day (i.e., Day 1).
(§2) On the 10th day after tumor inoculation (i.e. Day 10), mouse T cells are taken and 806-mCD28z-CAR-T cell line is constructed as described in step 1 of this example.
On the 14th day after tumor inoculation (i.e., Day 14), the volume of the tumor reaches about 150 mm^3, and the mice are divided in groups:
The formula of olaparib stock solution: olaparib is added with 4% DMSO+30% PEG300+66% ddH2O in sequence; a solution of 5 mg/mL is used as the stock solution. […]
(§3) (2) Detection of tumor volume. The tumor volume changes of mice are observed and measured continuously, and recorded three times a week. […]
(§4) (4) Detection of CAR-T copy number in tumor tissues. Tumor tissues of each group of mice are ground to extract DNA, and the sequence of retroviral vector fragment is detected by Taqman probe method to determine the DNA copy number of 806-mCD28z-CAR. […]

[2] = test system: 4T1-EGFRvIII orthotopic breast cancer xenografts; assay: Mouse 4T1-EGFRvIII orthotopic breast cancer xenografts, olaparib and CAR-T; format: in vivo, BALB/c mice; details: olaparib 50 mg/kg i.p. with CAR-T cells
Procedure: as §1
4T1-EGFRvIII cells in the logarithmic growth phase and growing well are collected, inoculating 5×10^5 target cells at right side position of the third pair of accessory breasts of BABL/C mice (mice with normal immune system), and the inoculating day is recorded as the first day (i.e., Day 1).
as §2
On the 14th day after tumor inoculation (i.e., Day 14), the volume of the tumor reaches about 150 mm^3, and the mice are divided in groups: […]
as §3, §4
(6) Detection of MDSC cells in tumor tissue. The tumor tissues of mice in each group are ground, and after enzyme digestion, the changes in the proportion of MDSC cells are analyzed by flow cytometry. […]

For `O=C(c1cc(Cc2n[nH]c(=O)c3ccccc23)ccc1F)N1CCN(C(=O)C2CC2)CC1` [olaparib], the “toxicity of combining olaparib with CAR-T cell therapy (from body weights)” value [1] was “do not cause significant toxicity” and the “toxicity of combining olaparib with CAR-T cell therapy (from body weights)” value [2] was “do not cause significant toxicity”.
